According to ChEMBL document CHEMBL1145934, “Novel sst(4)-selective somatostatin (SRIF) agonists. 2. Analogues with beta-methyl-3-(2-naphthyl)alanine substitutions at position 8” (J Med Chem, 2003):
pIC50: −log10 of the molar value.

Key:
[1] = molecular target: Somatostatin receptor type 5 (Homo sapiens, UniProt P35346); assay: Binding affinity at human Somatostatin receptor type 5 by [125I][Leu8,D-Trp22,Tyr25]SRIF-28 displacement.
[2] = molecular target: Somatostatin receptor type 4 (Homo sapiens, UniProt P31391); assay: Binding affinity at human Somatostatin receptor type 4 by [125I][Leu8,D-Trp22,Tyr25]SRIF-28 displacement.
Chain of Somatostatin receptor type 4 (P31391 whole entry): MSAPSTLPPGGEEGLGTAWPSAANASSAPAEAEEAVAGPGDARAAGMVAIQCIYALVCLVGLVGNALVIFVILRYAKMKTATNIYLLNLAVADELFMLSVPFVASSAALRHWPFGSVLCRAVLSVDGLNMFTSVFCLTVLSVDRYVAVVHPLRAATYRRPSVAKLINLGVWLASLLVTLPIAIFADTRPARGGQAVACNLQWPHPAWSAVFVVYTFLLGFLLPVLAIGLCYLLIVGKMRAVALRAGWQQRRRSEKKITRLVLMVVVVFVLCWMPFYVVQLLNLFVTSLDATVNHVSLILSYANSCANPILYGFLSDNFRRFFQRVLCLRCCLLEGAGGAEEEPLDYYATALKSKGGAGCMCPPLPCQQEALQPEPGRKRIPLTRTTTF

[3] = molecular target: Somatostatin receptor type 2 (Homo sapiens, UniProt P30874); assay: Binding affinity at human Somatostatin receptor type 2 by [125I][Leu8,D-Trp22,Tyr25]SRIF-28 displacement.
Chain of Somatostatin receptor type 2 (P30874 whole entry): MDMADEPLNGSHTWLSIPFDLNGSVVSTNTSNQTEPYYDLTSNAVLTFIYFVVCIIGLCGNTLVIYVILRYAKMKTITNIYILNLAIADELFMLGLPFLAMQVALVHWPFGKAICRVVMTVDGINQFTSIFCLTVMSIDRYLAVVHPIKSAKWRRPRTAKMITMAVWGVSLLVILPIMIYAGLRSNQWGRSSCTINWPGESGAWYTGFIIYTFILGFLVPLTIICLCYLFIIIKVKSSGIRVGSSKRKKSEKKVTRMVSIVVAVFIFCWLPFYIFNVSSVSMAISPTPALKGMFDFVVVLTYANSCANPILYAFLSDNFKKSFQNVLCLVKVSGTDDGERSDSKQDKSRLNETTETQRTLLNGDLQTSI

[4] = molecular target: Somatostatin receptor type 1 (Homo sapiens, UniProt P30872); assay: Binding affinity at human Somatostatin receptor type 1 by [125I][Leu8,D-Trp22,Tyr25]SRIF-28 displacement.
Chain of Somatostatin receptor type 1 (P30872 whole entry): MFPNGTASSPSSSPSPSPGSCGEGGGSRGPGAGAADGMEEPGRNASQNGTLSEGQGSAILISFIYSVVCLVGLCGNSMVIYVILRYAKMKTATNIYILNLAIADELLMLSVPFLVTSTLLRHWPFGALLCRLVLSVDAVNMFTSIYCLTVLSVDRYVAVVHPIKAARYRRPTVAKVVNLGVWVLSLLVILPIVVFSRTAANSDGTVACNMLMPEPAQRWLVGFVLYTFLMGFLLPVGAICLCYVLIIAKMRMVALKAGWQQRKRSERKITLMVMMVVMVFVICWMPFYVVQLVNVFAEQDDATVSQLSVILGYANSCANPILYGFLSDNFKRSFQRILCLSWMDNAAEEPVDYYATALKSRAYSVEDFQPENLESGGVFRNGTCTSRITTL

[5] = molecular target: Somatostatin receptor type 3 (Homo sapiens, UniProt P32745); assay: Binding affinity at human Somatostatin receptor type 3 by [125I][Leu8,D-Trp22,Tyr25]SRIF-28 displacement.
Chain of Somatostatin receptor type 3 (P32745 whole entry): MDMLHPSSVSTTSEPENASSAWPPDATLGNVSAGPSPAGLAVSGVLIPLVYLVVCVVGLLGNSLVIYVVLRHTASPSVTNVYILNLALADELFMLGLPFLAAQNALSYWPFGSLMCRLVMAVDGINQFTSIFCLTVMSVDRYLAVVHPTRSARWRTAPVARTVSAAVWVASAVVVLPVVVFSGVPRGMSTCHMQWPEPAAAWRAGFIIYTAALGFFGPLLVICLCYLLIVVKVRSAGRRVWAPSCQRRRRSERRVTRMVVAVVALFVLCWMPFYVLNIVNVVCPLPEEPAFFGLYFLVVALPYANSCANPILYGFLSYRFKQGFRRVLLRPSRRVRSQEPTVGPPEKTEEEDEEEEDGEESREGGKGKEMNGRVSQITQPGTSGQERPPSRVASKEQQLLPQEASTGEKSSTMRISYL

Chain of Somatostatin receptor type 5 (P35346 whole entry): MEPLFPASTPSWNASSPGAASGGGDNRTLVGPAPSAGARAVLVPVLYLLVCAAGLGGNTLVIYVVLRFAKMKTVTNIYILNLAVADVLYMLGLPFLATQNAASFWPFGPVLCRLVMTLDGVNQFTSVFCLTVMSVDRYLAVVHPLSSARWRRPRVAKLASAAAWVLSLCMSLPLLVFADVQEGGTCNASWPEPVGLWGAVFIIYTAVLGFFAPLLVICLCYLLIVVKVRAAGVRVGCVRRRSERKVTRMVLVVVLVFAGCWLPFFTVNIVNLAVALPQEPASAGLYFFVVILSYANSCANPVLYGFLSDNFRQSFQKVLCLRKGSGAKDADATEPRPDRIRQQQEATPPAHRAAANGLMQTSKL

With `C[C@@H](O)[C@H]1NC(=O)[C@H](CCCCN)NC(=O)[C@@H]([C@@H](C)c2ccc3ccccc3c2)NC(=O)[C@H](Cc2ccccc2)NC(=O)[C@@H](Cc2ccccc2)NC(=O)[C@H](N)CSSC[C@@H](C(=O)O)NC(=O)[C@H](Cc2ccc(O)cc2)NC1=O` as the compound, how does the pIC50 [1] read?
Its pIC50 is 6.15.

And the pIC50 [2]?
The pIC50 was 7.93.

What about the pIC50 [3] of the same compound?
Its pIC50 is 6.45.

And the pIC50 [4]?
Its pIC50 is under 6.00.

What about the pIC50 [5] of the same compound?
Its pIC50 is 6.49.

Which results are given for `C[C@@H](O)[C@H]1NC(=O)[C@H](CCCCN)NC(=O)[C@@H]([C@@H](C)c2ccc3ccccc3c2)NC(=O)[C@H](Cc2ccc(N)cc2)NC(=O)[C@@H](Cc2ccccc2)NC(=O)[C@H](N)CSSC[C@@H](C(=O)O)NC(=O)[C@H](Cc2ccccc2)NC1=O`?
pIC50 [1]: < 5.00; pIC50 [2]: 8.16; pIC50 [3]: 6.24; pIC50 [4]: < 5.00; pIC50 [5]: < 6.00

`C[C@@H](O)[C@@H]1NC(=O)[C@H](CCCCN)NC(=O)[C@H]([C@@H](C)c2ccc3ccccc3c2)NC(=O)[C@H](Cc2ccc(O)cc2)NC(=O)[C@H](Cc2ccccc2)NC(=O)[C@@H](N)CSSC[C@@H](C(=O)O)NC(=O)[C@H](Cc2ccccc2)NC1=O` was tested. Which pIC50 [1] did it give?
Its pIC50 is 6.83.

And the pIC50 [2]?
Its pIC50 is 8.68.

What about the pIC50 [3] of the same compound?
The pIC50 was 6.96.

What about the pIC50 [4] of the same compound?
The pIC50 was under 6.00.

And the pIC50 [5]?
The pIC50 was 6.22.

What does the source list for `COC(=O)[C@H](CCCN=C(N)N)NC(=O)CCCc1c(-c2ccccc2)[nH]c2c(F)cc(F)cc12`?
pIC50 [3]: < 5.00; pIC50 [5]: < 5.00

How did the pIC50 [1] turn out when `C[C@H](c1ccc2ccccc2c1)[C@H]1NC(=O)[C@H](Cc2ccc(O)cc2)NC(=O)[C@@H](Cc2ccccc2)NC(=O)[C@H](N)CSSC[C@@H](C(=O)O)NC(=O)[C@H](Cc2ccccc2)NC(=O)[C@@H]([C@@H](C)O)NC(=O)[C@H](CCCCN)NC1=O` was run?
Its pIC50 is under 5.00.

What about the pIC50 [2] of the same compound?
The pIC50 was under 6.00.

What about the pIC50 [3] of the same compound?
Its pIC50 is under 5.00.

What about the pIC50 [4] of the same compound?
The pIC50 was under 5.00.

And the pIC50 [5]?
The pIC50 was under 6.00.

How did the pIC50 [1] turn out when `C[C@@H](O)[C@@H]1NC(=O)[C@H](CCCCN)NC(=O)[C@@H]([C@@H](C)c2ccc3ccccc3c2)NC(=O)[C@H](Cc2ccc(O)cc2)NC(=O)[C@H](Cc2ccccc2)NC(=O)[C@@H](N)CSSC[C@@H](C(=O)O)NC(=O)[C@H](Cc2ccccc2)NC1=O` was run?
The pIC50 was under 6.00.

And the pIC50 [2]?
Its pIC50 is 6.98.

And the pIC50 [3]?
The pIC50 was under 6.00.

What about the pIC50 [4] of the same compound?
Its pIC50 is under 6.00.

What about the pIC50 [5] of the same compound?
The pIC50 was under 5.00.

How did the pIC50 [1] turn out when `C[C@H](c1ccc2ccccc2c1)[C@@H]1NC(=O)[C@H](Cc2ccc(O)cc2)NC(=O)[C@H](Cc2ccccc2)NC(=O)[C@@H](N)CSSC[C@@H](C(=O)O)NC(=O)[C@H](Cc2ccccc2)NC(=O)[C@H]([C@@H](C)O)NC(=O)[C@H](CCCCN)NC1=O` was run?
The pIC50 was 7.76.

And the pIC50 [2]?
The pIC50 was 8.66.

What about the pIC50 [3] of the same compound?
Its pIC50 is 7.52.

And the pIC50 [4]?
Its pIC50 is 6.39.

And the pIC50 [5]?
Its pIC50 is 7.74.

How did the pIC50 [2] turn out when `C[C@@H](O)[C@@H]1NC(=O)[C@H](CCCCN)NC(=O)[C@@H]([C@@H](C)c2ccc3ccccc3c2)NC(=O)[C@H](Cc2ccc(O)cc2)NC(=O)[C@H](Cc2ccccc2)NC(=O)[C@H](N)CSSC[C@@H](C(=O)O)NC(=O)[C@H](Cc2ccccc2)NC1=O` was run?
The pIC50 was 9.28.

Which results are given for `C[C@H](c1ccc2ccccc2c1)[C@@H]1NC(=O)[C@H](Cc2ccc(N)cc2)NC(=O)[C@H](Cc2ccccc2)NC(=O)[C@H](NC(=O)[C@@H](N)Cc2ccc(O)cc2)CSSC[C@@H](C(=O)O)NC(=O)[C@H](Cc2ccccc2)NC(=O)[C@H]([C@@H](C)O)NC(=O)[C@H](CCCCN)NC1=O`?
pIC50 [1]: < 6.00; pIC50 [2]: 7.21; pIC50 [3]: 6.32; pIC50 [4]: < 6.00; pIC50 [5]: 6.23

With `C[C@H](c1ccc2ccccc2c1)[C@@H]1NC(=O)[C@H](Cc2ccccc2)NC(=O)[C@@H](Cc2ccccc2)NC(=O)[C@H](N)CSSC[C@@H](C(=O)O)NC(=O)[C@H](Cc2ccc(O)cc2)NC(=O)[C@@H]([C@@H](C)O)NC(=O)[C@H](CCCCN)NC1=O` as the compound, how does the pIC50 [1] read?
Its pIC50 is 7.33.

And the pIC50 [2]?
Its pIC50 is 8.04.

And the pIC50 [3]?
The pIC50 was 7.80.

What about the pIC50 [4] of the same compound?
The pIC50 was under 6.00.

And the pIC50 [5]?
The pIC50 was 7.92.

`C[C@H](c1ccc2ccccc2c1)[C@@H]1NC(=O)[C@H](Cc2ccc(N)cc2)NC(=O)[C@@H](Cc2ccccc2)NC(=O)[C@H](N)CSSC[C@@H](C(=O)O)NC(=O)[C@H](Cc2ccccc2)NC(=O)[C@@H]([C@@H](C)O)NC(=O)[C@H](CCCCN)NC1=O` was tested. Which pIC50 [1] did it give?
Its pIC50 is 7.00.

What about the pIC50 [2] of the same compound?
Its pIC50 is 8.06.

What about the pIC50 [3] of the same compound?
Its pIC50 is 6.99.

And the pIC50 [4]?
Its pIC50 is under 6.00.

And the pIC50 [5]?
Its pIC50 is 6.73.

`C[C@@H](O)[C@@H]1NC(=O)[C@H](CCCCN)NC(=O)[C@@H]([C@@H](C)c2ccc3ccccc3c2)NC(=O)[C@H](Cc2ccc(N)cc2)NC(=O)[C@H](Cc2ccccc2)NC(=O)[C@H](NC(=O)[C@@H](N)Cc2ccc(O)cc2)CSSC[C@@H](C(=O)O)NC(=O)[C@H](Cc2ccccc2)NC1=O` was tested. Which pIC50 [1] did it give?
Its pIC50 is 6.90.

What about the pIC50 [2] of the same compound?
Its pIC50 is 8.01.

And the pIC50 [3]?
The pIC50 was 6.69.

What about the pIC50 [4] of the same compound?
The pIC50 was under 6.00.

And the pIC50 [5]?
The pIC50 was 6.77.
